Like-named read-outs stand apart in the source and are kept apart here. Marks after values point to notes of the source that are not given here.
Columns and labels:
[1] = in vitro; conditions: human
Description: (§3) We analyzed samples using a volumetric MACSQuant Analyzer Flow Cytometer (Miltenyi Biotec), manually resuspending each row immediately prior to sample uptake. We recorded 10,000 total events for each condition at the instrument-defined low flow rate. We assessed all compounds in 2 separate experiments with blood from different donors. […] All samples were gated for single cell events.

[2] = test system: uninfected RBCs; conditions: 5x P. falciparum 3D7-IC50; 24, 48, 72h
Description: as §3

[3] = test system: P. falciparum strain Dd2; assay: Inhibitor susceptibility dose-response assay (SYBR-Green I), P. falciparum Dd2; format: cell-based, Plasmodium falciparum; conditions: Plasmodium falciparum, read-out: IC50 (S.D.), P. falciparum-Dd2
Procedure: (§1) The P. falciparum strains 3D7 and Dd2 were obtained from the Walter and Eliza Hall Institute (Melbourne, Australia) and the Malaria Research and Reference Reagent Resource, respectively. […] B. divergens parasites were maintained and assayed in mixed stages without synchronization.
(§2) Ring-stage P. falciparum (1%-parasitemia starting, 1%-hematocrit) and asynchronous B.divergens (0.5%-parasitemia starting, 3%-hematocrit) were incubated with plated compounds for 72h, and ring-stage P. knowlesi (1%-parasitemia starting, 1%-hematocrit) for 48h, before lysis and staining with dye. To quantify the species-specificity of the inhibitors, we divided the range of IC50s across the 4 test lines by the average IC50 across the same lines: inhibitors with increased scores show species-specific activity and reduced scores indicate broad-spectrum, pan-species activity.

[4] = test system: P. falciparum strain 3D7; assay: Inhibitor susceptibility dose-response assay (SYBR-Green I), P. falciparum 3D7; format: cell-based, Plasmodium falciparum; conditions: Plasmodium falciparum, read-out: IC50 (S.D.), P. falciparum-3D7
Procedure: as §1, §2

[5] = test system: Plasmodium berghei; design: method as in Wu et al., 2017; conditions: mouse model of severe malaria with Plasmodium berghei ref Wu et al., 2017; cited from earlier work
[6] = test system: MEF; design: method as in PMID 29336889; conditions: cellular proliferation ref PMID 29336889; read-out: Micromolar IC50 (MEF); cited from earlier work
[7] = test system: uninfected RBCs; assay: Cellular phosphatidylserine exposure assay (annexin V flow cytometry);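 as to all read-outs here: flow cytometry recording 10,000 events per condition, gated on single cells, with the two experiments using blood from separate donors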; conditions: for PS exposure on RBCs, in words: 5x P. falciparum 3D7-IC50, 24, 48, 72h
[8] = test system: P. falciparum (3D7); assay: Assay for inhibition of parasite proliferation via RBC-targeting (transient exposure of RBCs, wash, then infection); format: cell-based, Plasmodium falciparum; conditions: transient vs continued exposure; dose-response format where stated, n=3
Procedure: All plates were frozen for storage before assay. For assay, duplicate plates were preincubated with donor O+ RBCs at 2% hematocrit at 37°C in 50µL for 4-5 hours. Following preincubation, one but not the other plate in each pair was washed 4X in complete RPMI to dilute inhibitor. We transferred RBCs from both washed and unwashed plates to black, clear bottom 96-well plates (Corning Cat. No. 3904) and supplemented these suspensions with MACS-purified P. falciparum (3D7) schizonts for a starting parasitemia of 0.1% - 0.25% at 1% hematocrit. Following 72h incubation in standard culture conditions, samples were processed for SYBR-Green I signal ([Mandt et al., 2019]). […] To identify host-targeting compounds, we compared DMSO-treated to inhibitor-treated samples (Students t-test, paired). We carried out the assay with 1 µM mefloquine (Sigma-Aldrich Cat. No. M2319) as a control for reversible inhibition. All assays were conducted in biological triplicate, with each experiment utilizing different donor RBCs. For select compounds, we carried out this same assay in a dose-response series (n=3 experiments). Following normalization to DMSO-controls, we assessed inhibitor activity following transient exposure of RBCs by Two-Way ANOVA tests for repeated measures (Graphpad Prism v9): high P values indicate support for the null hypothesis that dose-dependent inhibition is not modulated by dilution after exposure, consistent with a direct inhibitory effect of the compounds on RBCs persisting after transient exposure.

[9] = test system: BdC9 line of B. divergens; assay: Inhibitor susceptibility dose-response assay (SYBR-Green I), B. divergens; format: cell-based, Babesia divergens; conditions: for fold higher doses required for 50% inhibition of B. divergens than of the Plasmodium spp. lines: B. divergens vs Plasmodium spp. lines; for IC50: Babesia divergens, read-out: IC50 (S.D.), B. divergens
Procedure: as §1, §2

[10] = test system: P. falciparum 3D7; assay: Co-administration with established antimalarials, IC50 shift; format: cell-based, Plasmodium falciparum; conditions: P<0.05
Description: Our experimental compound set is weighted toward kinase inhibitors, reflecting the high degree of small molecule development in this target space.

[11] = test system: P. knowlesi YH1 strain; assay: microbe, parasite or virus in culture; format: cell-based, Plasmodium knowlesi; conditions: Plasmodium knowlesi, 48 h, read-out: IC50 (S.D.), P. knowlesi
Procedure: as §1, §2

[12] = test system: Plasmodium spp. lines; assay: Inhibitor susceptibility assays, summary over the Plasmodium spp. lines; format: cell-based; conditions: for antiparasitic activity in vitro, in words, Plasmodium spp.: Plasmodium spp. parasites; for IC50: approximate value given in text for the Plasmodium spp. lines, read-out: IC50 against the Plasmodium spp. lines
Description: The P. falciparum strains 3D7 and Dd2 were obtained from the Walter and Eliza Hall Institute (Melbourne, Australia) and the Malaria Research and Reference Reagent Resource, respectively. The P. knowlesi YH1 strain adapted for growth in human erythrocytes and the BdC9 line of B. divergens were previously reported ([Lim et al., 2013]; [Rezvani et al., 2022]). All parasite lines were maintained in continuous culture in human erythrocytes O+ purchased from a commercial source (Research Blood Components, Boston USA) in RPMI-1640 medium as described (eg [Rezvani et al., 2022]), typically at 2%-hematocrit. Plasmodium parasites were synchronized using sorbitol (5% [wt/vol] for both P. falciparum and P. knowlesi; for P. knowlesi, with addition of 20 mM Na-HEPES and 0.1 mg/ml BSA) ([Lambros and Vanderberg, 1979]) at least once in the week prior to assays. B. divergens parasites were maintained and assayed in mixed stages without synchronization.
as §2, with “We carried out dose-response assays in 384-well plates (40 µl assay volume) for measurement with SYBR-Green I dye ([Mandt et al., 2019]), with test compounds pre-printed into wells via use of a D300 Digital Dispenser (Hewlett-Packard). Ring-stage” for “Ring-stage”

[13] = test system: H2228; design: method as in PMID 30333870; conditions: cellular proliferation ref PMID 30333870; read-out: Micromolar IC50 (H2228); cited from earlier work
[14] = experimental logP ref https://go.drugbank.com/drugs/DB08865; cited from earlier work
[15] = test system: breast cancer cell line panel; design: method as in PMID 21159648; conditions: cellular proliferation ref PMID 21159648; read-out: Micromolar IC50 (breast cancer cell line panel); cited from earlier work
[16] = test system: SW1990; design: method as in PMID 27487486; conditions: cellular proliferation ref PMID 27487486; read-out: Micromolar IC50 (SW1990); cited from earlier work
[17] = test system: serum- or growth factor induced fibroblasts; design: method as in PMID 8519682; conditions: cellular proliferation ref PMID 8519682; read-out: Micromolar IC50 (serum- or growth factor induced fibroblasts); cited from earlier work
[18] = uninfected RBCs (red blood cells), 1% hematocrit
[19] = DD2, 72h, ring-stage, n=3 experiments (or 2 where indicated with *)
[20] = 3D7, 72h, ring-stage, n=3 experiments (or 2 where indicated with *)
[21] = 24h, 5x P. falciparum 3D7-IC50, % of RBCs, mean of 2 experiments
[22] = 5x P. falciparum 3D7-IC50, % of RBCs, mean of 2 experiments
[23] = 72h, 5x P. falciparum 3D7-IC50, % of RBCs, mean of 2 experiments
[24] = 72h, asynchronous, n=3 experiments (or 2 where indicated with *)

SMILES	hemolysis at 24 h, 5 x P. falciparum 3D7-IC50 [1, 18]	hemolysis at 48 h, 5 x P. falciparum 3D7-IC50 [1, 18]	hemolysis at 72 h, 5 x P. falciparum 3D7-IC50 [1, 18]	hemolysis of RBCs, in words [2]	IC50 [3, 19]	IC50 [4, 20]	PS exposure on RBCs, in words [7]	Phosphatidylserine exposure (%) 24h [7, 21]	Phosphatidylserine exposure (%) 48h [7, 22]	Phosphatidylserine exposure (%) 72h [7, 23]	antiparasitic activity in vitro, in words, B. divergens [9]	fold higher doses required for 50% inhibition of B. divergens than of the Plasmodium spp. lines [9]	IC50 [9, 24]	IC50 [11]	antiparasitic activity in vitro, in words, Plasmodium spp. [12]	IC50 [12]	hemolysis at 24 h, 5 x P. falciparum 3D7-IC50 [1]	IC50 ([3]; DD2, 72 h)	IC50 ([4]; 3D7, 72 h)	IC50 ([9]; 72 h)	also measured
CC(=O)Nc1cccc(-n2c(=O)n(C3CC3)c(=O)c3c(Nc4ccc(I)cc4F)n(C)c(=O)c(C)c32)c1 [Trametinib]	-1%	7%	15%	similarly low levels	110 nM	90 nM	similarly low levels	2%	2%	5%	single-digit micromolar activity	> 30 fold	6 µM	100 nM	potent submicromolar activity	~100 nM					survival of infected mice [5]: improve survival of infected mice; IC50 [6]: 1.6 to 4.8 nM; inhibitory activity following transient exposure of RBCs, in words [8]: does not persist beyond transient exposure; reduction in the IC50 of chloroquine in combination with fixed, sublethal dose of test compound [10]: ≤ 2 fold; reduction in the IC50 of mefloquine in combination with fixed, sublethal dose of test compound [10]: ≤ 2 fold
C[C@@H](Oc1cc(-c2cnn(C3CCNCC3)c2)cnc1N)c1c(Cl)ccc(F)c1Cl [Crizotinib]									2%		single-digit micromolar activity			800 nM	potent submicromolar activity		1%	140 nM	700 nM	3 µM	hemolysis at 48 h, 5 x P. falciparum 3D7-IC50 [1]: 9%; hemolysis at 72 h, 5 x P. falciparum 3D7-IC50 [1]: 14%; IC50 [13]: 311 nM; logP (octanol-water partition coefficient), experimental [14]: Crizotinib [drawing 15] (450.3; 1.83^2); Phosphatidylserine exposure (%) 24h [7]: 1%; Phosphatidylserine exposure (%) 72h [7]: 5%
O=C(O)c1ccc2c(c1)nc(Nc1cccc(Cl)c1)c1ccncc12 [CX-4945]				similarly low levels	6000 nM	9000 nM	similarly low levels	2%	2%				10 µM	9000 nM			-4%				hemolysis at 48 h, 5 x P. falciparum 3D7-IC50 [1]: -1%; hemolysis at 72 h, 5 x P. falciparum 3D7-IC50 [1]: 16%; IC50 [15]: 1.7 to 20 µM; Phosphatidylserine exposure (%) 72h [7]: 3%
CCCC[C@@H](C=O)NC(=O)[C@H](CC(C)C)NC(=O)OCc1ccccc1 [Calpeptin]	0%	8%	17%					2%	2%	5%		> 30 fold		900 nM		~1000 nM		1300 nM	1000 nM	40 µM	IC50 [16]: 74.2 µM
COc1ccc(S(=O)(=O)N(CCO)c2ccccc2CN(C)C/C=C/c2ccc(Cl)cc2)cc1 [KN-93 Phosphate]	-4%	7%	16%					2%	2%	4%				5000 nM				3000 nM	3900 nM	6 µM	IC50 [17]: 6 to 12 µM

From paper PMC10988762, “Inhibition of malaria and babesiosis parasites by putative red blood cell targeting small molecules” (Frontiers in Cellular and Infection Microbiology, 2024)
